Patent publication US6770596B1, “Fused tricyclic compounds, process for their preparation, and herbicidal compositions containing them” (Ishihara Sangyo Kaisha Ltd., priority 2002, dated 2004)

Experiments:
Type in all cases: in vivo
[1] = tested on: common ragweed (Ambrosia artemisiifolia L., AML); assay: Post-emerge test, common ragweed; details: 250 g ai/ha, 14 days after application, rating scale 0-100 (0 no damage, 100 complete death)
How it was run: (§1)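 Emerged seedlings, usually at 2-3 leaves after 8-21 days' growth in sandy loam, were treated with 8-1000 g ai/ha. Treatment was an acetone spray at 187 l/ha containing 0.25% v/v non-ionic surfactant. Assessment at 14 days used a 0 (no damage) to 100 (total death) scale.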

[2] = tested on: barnyardgrass (Echinachloa crus-galli, ECC); assay: Pre-emerge test, barnyardgrass; details: 250 g ai/ha, 14 days after application, rating scale 0-100 (0 no damage, 100 complete death)
How it was run: (§2)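 Pots (10 cm, sandy loam mix) were seeded one day ahead of spraying. Test materials, dissolved in acetone, went on at 8–1000 g ai/ha in a 187 l/ha spray volume. Damage was scored 14 days later from 0 (none) to 100 (total kill).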

[3] = tested on: field corn (Zea mays L., var. Dekalb 535, CORN); assay: Post-emerge test, crop damage field corn; details: post-emerge, 250 g ai/ha, 14 days after application, rating scale 0-100 (0 no damage, 100 complete death)
How it was run: as §1

[4] = tested on: wheat (Triticum aestivum); assay: Pre-emerge test, crop damage wheat; details: pre-emerge, 250 g ai/ha, 14 days after application, rating scale 0-100 (0 no damage, 100 complete death)
How it was run: (§3)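 Greenhouse pre-emergence screen: track-sprayer application of compounds in acetone at 187 l/ha, rates 8 g ai/ha to 1000 g ai/ha, one day after planting in sandy loam pots. Damage scored at 14 days, 0 (none) to 100 (all plants dead).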

[5] = tested on: redroot pigweed (Amaranthus retroflexus, AMR); assay: Pre-emerge test, redroot pigweed; details: 250 g ai/ha, 14 days after application, rating scale 0-100 (0 no damage, 100 complete death)
How it was run: as §2

[6] = tested on: cocklebur (Xanthium strumariunt, XAS); assay: Post-emerge test, cocklebur; details: 250 g ai/ha, 14 days after application, rating scale 0-100 (0 no damage, 100 complete death)
How it was run: as §1

[7] = tested on: large crabgrass (Digitaria sanguinalis, DIS); assay: Post-emerge test, large crabgrass; details: 250 g ai/ha, 14 days after application, rating scale 0-100 (0 no damage, 100 complete death)
How it was run: as §1

[8] = tested on: soybean (Glycine max L., var. Pella 86, SOY); assay: Pre-emerge test, crop damage soybean; details: pre-emerge, 250 g ai/ha, 14 days after application, rating scale 0-100 (0 no damage, 100 complete death)
How it was run: as §3

[9] = tested on: wheat (Triticum aestivum); assay: Post-emerge test, crop damage wheat; details: post-emerge, 250 g ai/ha, 14 days after application, rating scale 0-100 (0 no damage, 100 complete death)
How it was run: as §1

[10] = tested on: barnyardgrass (Echinachloa crus-galli, ECC); assay: Post-emerge test, barnyardgrass; details: 250 g ai/ha, 14 days after application, rating scale 0-100 (0 no damage, 100 complete death)
How it was run: as §1

[11] = tested on: ivyleaf morningglory (Ipomoea hederacea, IPH); assay: Pre-emerge test, ivyleaf morningglory; details: 250 g ai/ha, 14 days after application, rating scale 0-100 (0 no damage, 100 complete death)
How it was run: as §2

[12] = tested on: soybean (Glycine max L., var. Pella 86, SOY); assay: Post-emerge test, crop damage soybean; details: post-emerge, 250 g ai/ha, 14 days after application, rating scale 0-100 (0 no damage, 100 complete death)
How it was run: as §1

[13] = tested on: lambsquarters (Chenopodium album, CHA); assay: Pre-emerge test, lambsquarters; details: 250 g ai/ha, 14 days after application, rating scale 0-100 (0 no damage, 100 complete death)
How it was run: as §2

[14] = tested on: upland rice (Oryza sp., var.Tebonnet, RICE); assay: Post-emerge test, crop damage upland rice; details: post-emerge, 250 g ai/ha, 14 days after application, rating scale 0-100 (0 no damage, 100 complete death)
How it was run: as §1

[15] = tested on: upland rice (Oryza sp., var.Tebonnet, RICE); assay: Pre-emerge test, crop damage upland rice; details: pre-emerge, 250 g ai/ha, 14 days after application, rating scale 0-100 (0 no damage, 100 complete death)
How it was run: as §3

[16] = tested on: johnsongrass (Sorghum halepense, SOH); assay: Pre-emerge test, johnsongrass; details: 250 g ai/ha, 14 days after application, rating scale 0-100 (0 no damage, 100 complete death)
How it was run: as §2

[17] = tested on: cocklebur (Xanthium strumariunt, XAS); assay: Pre-emerge test, cocklebur; details: 250 g ai/ha, 14 days after application, rating scale 0-100 (0 no damage, 100 complete death)
How it was run: as §2

[18] = tested on: field corn (Zea mays L., var. Dekalb 535, CORN); assay: Pre-emerge test, crop damage field corn; details: pre-emerge, 250 g ai/ha, 14 days after application, rating scale 0-100 (0 no damage, 100 complete death)
How it was run: as §3

[19] = tested on: large crabgrass (Digitaria sanguinalis, DIS); assay: Pre-emerge test, large crabgrass; details: 250 g ai/ha, 14 days after application, rating scale 0-100 (0 no damage, 100 complete death)
How it was run: as §2

[20] = tested on: johnsongrass (Sorghum halepense, SOH); assay: Post-emerge test, johnsongrass; details: 250 g ai/ha, 14 days after application, rating scale 0-100 (0 no damage, 100 complete death)
How it was run: as §1

[21] = tested on: green foxtail (Setaria viridis, SEV); assay: Pre-emerge test, green foxtail; details: 250 g ai/ha, 14 days after application, rating scale 0-100 (0 no damage, 100 complete death)
How it was run: as §2

[22] = tested on: velvetleaf (Abutilon theophrasti, ABT); assay: Post-emerge test, velvetleaf; details: 250 g ai/ha, 14 days after application, rating scale 0-100 (0 no damage, 100 complete death)
How it was run: as §1

[23] = tested on: velvetleaf (Abutilon theophrasti, ABT); assay: Pre-emerge test, velvetleaf; details: 250 g ai/ha, 14 days after application, rating scale 0-100 (0 no damage, 100 complete death)
How it was run: as §2

[24] = tested on: sicklepod (Cassia obtusifolia, CAO); assay: Post-emerge test, sicklepod; details: 250 g ai/ha, 14 days after application, rating scale 0-100 (0 no damage, 100 complete death)
How it was run: as §1

[25] = tested on: ivyleaf morningglory (Ipomoea hederacea, IPH); assay: Post-emerge test, ivyleaf morningglory; details: 250 g ai/ha, 14 days after application, rating scale 0-100 (0 no damage, 100 complete death)
How it was run: as §1

[26] = tested on: green foxtail (Setaria viridis, SEV); assay: Post-emerge test, green foxtail; details: 250 g ai/ha, 14 days after application, rating scale 0-100 (0 no damage, 100 complete death)
How it was run: as §1

[27] = tested on: sicklepod (Cassia obtusifolia, CAO); assay: Pre-emerge test, sicklepod; details: 250 g ai/ha, 14 days after application, rating scale 0-100 (0 no damage, 100 complete death)
How it was run: as §2

[28] = tested on: common ragweed (Ambrosia artemisiifolia L., AML); assay: Pre-emerge test, common ragweed; details: 250 g ai/ha, 14 days after application, rating scale 0-100 (0 no damage, 100 complete death)
How it was run: as §2

[29] = tested on: redroot pigweed (Amaranthus retroflexus, AMR); assay: Post-emerge test, redroot pigweed; details: 250 g ai/ha, 14 days after application, rating scale 0-100 (0 no damage, 100 complete death)
How it was run: as §1

[30] = tested on: lambsquarters (Chenopodium album, CHA); assay: Post-emerge test, lambsquarters; details: 250 g ai/ha, 14 days after application, rating scale 0-100 (0 no damage, 100 complete death)
How it was run: as §1

## CCC1C(=O)Nc2c(-c3nn(C)c(OC(F)F)c3Cl)c(F)cc3c2N1C(=O)CO3 (stereo not drawn) [1-28]
[1]
  Post-emerge Herbicidal Activity AML (phytotoxicity rating): 100
[2]
  Pre-emerge Herbicidal Activity ECC (phytotoxicity rating): 100
[3]
  Post-emerge crop damage CORN (phytotoxicity rating): 25
[4]
  Pre-emerge crop damage WHEAT (phytotoxicity rating): 65
[5]
  Pre-emerge Herbicidal Activity AMR (phytotoxicity rating): 100
[6]
  Post-emerge Herbicidal Activity XAS (phytotoxicity rating): 100
[7]
  Post-emerge Herbicidal Activity DIS (phytotoxicity rating): 15
[8]
  Pre-emerge crop damage SOY (phytotoxicity rating): 40
[9]
  Post-emerge crop damage WHEAT (phytotoxicity rating): 50
[10]
  Post-emerge Herbicidal Activity ECC (phytotoxicity rating): 99
[11]
  Pre-emerge Herbicidal Activity IPH (phytotoxicity rating): 100
[12]
  Post-emerge crop damage SOY (phytotoxicity rating): 100
[13]
  Pre-emerge Herbicidal Activity CHA (phytotoxicity rating): 100
[14]
  Post-emerge crop damage RICE (phytotoxicity rating): 100
[15]
  Pre-emerge crop damage RICE (phytotoxicity rating): 75
[16]
  Pre-emerge Herbicidal Activity SOH (phytotoxicity rating): 100
[17]
  Pre-emerge Herbicidal Activity XAS (phytotoxicity rating): 100
[18]
  Pre-emerge crop damage CORN (phytotoxicity rating): 85
[19]
  Pre-emerge Herbicidal Activity DIS (phytotoxicity rating): 100
[20]
  Post-emerge Herbicidal Activity SOH (phytotoxicity rating): 80
[21]
  Pre-emerge Herbicidal Activity SEV (phytotoxicity rating): 100
[22]
  Post-emerge Herbicidal Activity ABT (phytotoxicity rating): 100
[23]
  Pre-emerge Herbicidal Activity ABT (phytotoxicity rating): 100
[24]
  Post-emerge Herbicidal Activity CAO (phytotoxicity rating): 100
[25]
  Post-emerge Herbicidal Activity IPH (phytotoxicity rating): 100
[26]
  Post-emerge Herbicidal Activity SEV (phytotoxicity rating): 100
[27]
  Pre-emerge Herbicidal Activity CAO (phytotoxicity rating): 100
[28]
  Pre-emerge Herbicidal Activity AML (phytotoxicity rating): 98
[29]
  Post-emerge Herbicidal Activity AMR (phytotoxicity rating): 100
[30]
  Post-emerge Herbicidal Activity CHA (phytotoxicity rating): 100

## O=C1CN2C(=O)COc3cc(F)c(-n4nnn(CCCF)c4=O)c(c32)N1 [1-76]
[1]
  Post-emerge Herbicidal Activity AML (phytotoxicity rating): 0
[2]
  Pre-emerge Herbicidal Activity ECC (phytotoxicity rating): 35
[3]
  Post-emerge crop damage CORN (phytotoxicity rating): 0
[4]
  Pre-emerge crop damage WHEAT (phytotoxicity rating): 0
[5]
  Pre-emerge Herbicidal Activity AMR (phytotoxicity rating): 65
[6]
  Post-emerge Herbicidal Activity XAS (phytotoxicity rating): 0
[7]
  Post-emerge Herbicidal Activity DIS (phytotoxicity rating): 0
[8]
  Pre-emerge crop damage SOY (phytotoxicity rating): 0
[9]
  Post-emerge crop damage WHEAT (phytotoxicity rating): 0
[10]
  Post-emerge Herbicidal Activity ECC (phytotoxicity rating): 0
[11]
  Pre-emerge Herbicidal Activity IPH (phytotoxicity rating): 25
[12]
  Post-emerge crop damage SOY (phytotoxicity rating): 0
[13]
  Pre-emerge Herbicidal Activity CHA (phytotoxicity rating): 98
[14]
  Post-emerge crop damage RICE (phytotoxicity rating): 0
[15]
  Pre-emerge crop damage RICE (phytotoxicity rating): 10
[16]
  Pre-emerge Herbicidal Activity SOH (phytotoxicity rating): 35
[17]
  Pre-emerge Herbicidal Activity XAS (phytotoxicity rating): 60
[18]
  Pre-emerge crop damage CORN (phytotoxicity rating): 5
[19]
  Pre-emerge Herbicidal Activity DIS (phytotoxicity rating): 25
[20]
  Post-emerge Herbicidal Activity SOH (phytotoxicity rating): 0
[21]
  Pre-emerge Herbicidal Activity SEV (phytotoxicity rating): 0
[22]
  Post-emerge Herbicidal Activity ABT (phytotoxicity rating): 0
[23]
  Pre-emerge Herbicidal Activity ABT (phytotoxicity rating): 55
[24]
  Post-emerge Herbicidal Activity CAO (phytotoxicity rating): 0
[25]
  Post-emerge Herbicidal Activity IPH (phytotoxicity rating): 0
[26]
  Post-emerge Herbicidal Activity SEV (phytotoxicity rating): 0
[27]
  Pre-emerge Herbicidal Activity CAO (phytotoxicity rating): 45
[28]
  Pre-emerge Herbicidal Activity AML (phytotoxicity rating): 55
[29]
  Post-emerge Herbicidal Activity AMR (phytotoxicity rating): 0
[30]
  Post-emerge Herbicidal Activity CHA (phytotoxicity rating): 0
